Experimental data as given in patent publication US8269026B2, “Lupane derivatives useful for treating HIV” (priority 2008, dated 2012).

The compounds below were run on HIV-1 (HIVIIIB) replication in MT2 cell line (assay: HIV-1 replication in MT2 cell line with and without 30% human serum (viral RT activity in supernatant)). Conditions: Human immunodeficiency virus 1, MT2 cells, with 30% human serum, average IC50 if tested more than once, read-out: MT2 (HIVIIIB) with HS 30% IC50 range.
Format: cell-based
Experimental: HIV-1 Replication in MT2 cell line with and without 30% human serum: The cells are infected at a Multiciplicity of Infection (MOI) of 0.5 for 3 h and then washed twice with complete media to remove residual virus. Cells are then resuspended at 0.5×10^6/ml in complete medium (RPMI, 10% FBS, 1% sodium pyruvate), and seeded into 96-well plates (6.25×10^4/well). The cells are cultured in the presence or absence of various concentrations of test compounds in serial dilutions for 3 days at 37° C. The test compounds are serially diluted in complete medium supplemented or not with 30% human serum. After 3 days, 100 μL of cultured medium with cells are replaced with 120 μL of freshly diluted test compounds in complete medium containing or not 30% Human serum. The level of HIV-1 replication is determined at days 5 after infection by the presence of viral RT activity in harvested supernatant fluid. The IC50 and IC90 values for the virus replication are determined by using GRAPHPAD PRISM software.
The IC50 of the compounds tested in accordance with the HIV replication activity assay MT2 (HIVIIIB) are represented in Table 1.
For `CC(C)C1=C2C3CCC4[C@@]5(C)CC[C@H](OC(=O)CC(C)(C)C(=O)O)C(C)(C)C5CC[C@@]4(C)[C@]3(C)CC[C@@]2(NC(=O)NC2CCN(C)CC2)CC1=O` (stereo partly drawn) [17-30, 3β-O-(3′,3′-Dimethylsuccinyl)-17β-[N′-(1-methyl-piperidin-4-yl)-ureido]-21-oxolup-18-ene], the IC50 was under 199 nM.
Compound `CCc1nnc(C(=O)N[C@@]23CC[C@]4(C)C(CCC5[C@@]6(C)CC[C@H](OC(=O)CC(C)(C)C(=O)O)C(C)(C)C6CC[C@]54C)C2=C(C(C)C)C(=O)C3)o1` (stereo partly drawn) [19-79, 3β-O-(3′,3′-Dimethylsuccinyl)-17β-(5-ethyl-[1,3,4]-oxadiazole-2-amido)-21-oxolup-18-ene] has an IC50 of under 199 nM.
Work on `CC(C)C1=C2[C@H]3CC[C@@H]4[C@@]5(C)CC[C@H](OC(=O)CC(C)(C)C(=O)O)C(C)(C)[C@@H]5CC[C@@]4(C)[C@]3(C)CC[C@@]2(NC(=O)C2CCN(C(=O)OC(C)(C)C)CC2)CC1=O` [19-5, 3β-O-(3′,3′-Dimethylsuccinyl)-17β-(1-tert-butyloxycarbonylpiperidine-4-amido)-21-oxolup-18-ene] yielded an IC50 of under 199 nM.
With `CC(C)C1=C2[C@H]3CC[C@@H]4[C@@]5(C)CC[C@H](OC(=O)CC(C)(C)C(=O)O)C(C)(C)[C@@H]5CC[C@@]4(C)[C@]3(C)CC[C@@]2(NC(=O)NCc2nncn2C)CC1=O` [17-74, 3β-O-(3′,3′-Dimethylsuccinyl)-17β-[N′-(4-methyl-4H-[1,2,4]triazol-3-yl-methyl)-ureido]-21-oxolup-18-ene] the IC50 was over 1000 nM.
For `CC(=O)N1CCN(C(=O)N[C@@]23CC[C@]4(C)[C@H](CC[C@@H]5[C@@]6(C)CC[C@H](OC(=O)CC(C)(C)C(=O)O)C(C)(C)[C@@H]6CC[C@]54C)C2=C(C(C)C)C(=O)C3)CC1` [17-17, 3β-O-(3′,3′-Dimethylsuccinyl)-17β-[(4-acetyl-piperazine-1-carbonyl)-amino]-21-oxolup-18-ene], the IC50 was under 199 nM.
`Cc1nc(C(=O)N[C@@]23CC[C@]4(C)C(CCC5[C@@]6(C)CC[C@H](OC(=O)CC(C)(C)C(=O)O)C(C)(C)C6CC[C@]54C)C2=C(C(C)C)C(=O)C3)cs1` (stereo partly drawn) [19-72, 3β-O-(3′,3′-Dimethylsuccinyl)-17β-(2-methyl-1,3-thiazole-4-amido)-21-oxolup-18-ene] showed an IC50 of under 199 nM.
With `CC(C)C1=C2[C@H]3CC[C@@H]4[C@@]5(C)CC[C@H](OC(=O)CC(C)(C)C(=O)O)C(C)(C)[C@@H]5CC[C@@]4(C)[C@]3(C)CC[C@@]2(NC(=O)NC[C@@H]2CCCN2C(=O)OC(C)(C)C)CC1=O` [17-34, 3β-O-(3′,3′-Dimethylsuccinyl)-17β-[(3-(S)-1-tert-butyloxycarbonyl-pyrrolidin-2-ylmethyl)-ureido]-21-oxolup-18-ene] the IC50 was under 199 nM.
`CC(C)C1=C2C3CCC4[C@@]5(C)CC[C@H](OC(=O)CC(C)(C)C(=O)O)C(C)(C)C5CC[C@@]4(C)[C@]3(C)CC[C@@]2(NC(=O)OC2CCN(C(=O)OC(C)(C)C)CC2)CC1=O` (stereo partly drawn) [20-6, 3β-O-(3′,3′-Dimethylsuccinyl)-17β-[(1-carboxylic acid tert-butyl ester)-piperidine-4-oxycarbonylamino]-21-oxolup-18-ene] gave an IC50 of under 199 nM.
`CC(C)C1=C2[C@H]3CC[C@@H]4[C@@]5(C)CC[C@H](OC(=O)CC(C)(C)C(=O)O)C(C)(C)[C@@H]5CC[C@@]4(C)[C@]3(C)CC[C@@]2(NC(=O)NCc2nccn2C)CC1=O` [17-73, 3β-O-(3′,3′-Dimethylsuccinyl)-17β-[N′-(1-methyl-1H-imidazol-2-yl-methyl)-ureido]-21-oxolup-18-ene] gave an IC50 of under 199 nM.
With `Cc1nc(C(=O)N[C@@]23CC[C@]4(C)C(CCC5[C@@]6(C)CC[C@H](OC(=O)CC(C)(C)C(=O)O)C(C)(C)C6CC[C@]54C)C2=C(C(C)C)C(=O)C3)co1` (stereo partly drawn) [19-76, 3β-O-(3′,3′-Dimethylsuccinyl)-17β-(2-methyl-1,3-oxazole-4-amido)-21-oxolup-18-ene] the IC50 was under 199 nM.
For `CC(C)C1=C2C3CCC4[C@@]5(C)CC[C@H](OC(=O)CC(C)(C)C(=O)O)C(C)(C)C5CC[C@@]4(C)[C@]3(C)CC[C@@]2(NC(=O)NC2CCNCC2)CC1=O` (stereo partly drawn) [17-10, 3β-O-(3′,3′-Dimethylsuccinyl)-17β-(N′-piperidin-4-yl-ureido)-21-oxolup-18-ene], the IC50 was over 1000 nM.
`CC(C)C1=C2C3CCC4[C@@]5(C)CC[C@H](OC(=O)CC(C)(C)C(=O)O)C(C)(C)C5CC[C@@]4(C)[C@]3(C)CC[C@@]2(NC(=O)NCC2CCCCC2)CC1=O` (stereo partly drawn) [17-8, 3β-O-(3′,3′-Dimethylsuccinyl)-17β-[N′-(cyclohexylmethyl)ureido]-21-oxolup-18-ene] gave an IC50 of under 199 nM.
Work on `CC(C)C1=C2[C@H]3CC[C@@H]4[C@@]5(C)CC[C@H](OC(=O)CC(C)(C)C(=O)O)C(C)(C)[C@@H]5CC[C@@]4(C)[C@]3(C)CC[C@@]2(NC(=O)CN2CCN(C)CC2)CC1=O` [19-54, 3β-O-(3′,3′-Dimethylsuccinyl)-17β-(4-methylpiperazine-1-acetamido)-21-oxolup-18-ene] yielded an IC50 of under 199 nM.
In the case of `CC(C)C1=C2C3CCC4[C@@]5(C)CC[C@H](OC(=O)CC(C)(C)C(=O)O)C(C)(C)C5CC[C@@]4(C)[C@]3(C)CC[C@@]2(NC(=O)N2CCC(NC(=O)OC(C)(C)C)CC2)CC1=O` (stereo partly drawn) [17-20, 3β-O-(3′,3′-Dimethylsuccinyl)-17β-[(4-tert-butoxycarbonylamino-piperidine-1-carbonyl)-amino]-21-oxolup-18-ene], the IC50 is reported as under 199 nM.
Compound `CC(C)C1=C2C3CCC4[C@@]5(C)CC[C@H](OC(=O)CC(C)(C)C(=O)O)C(C)(C)C5CC[C@@]4(C)[C@]3(C)CC[C@@]2(NC(=O)N2CC[C@H](NC(=O)OC(C)(C)C)C2)CC1=O` (stereo partly drawn) [17-41, 3β-O-(3′,3′-Dimethylsuccinyl)-17β-[((S)-3-tert-butyloxycarbonylamino-pyrrolidine-1-carbonyl)-amino]-21-oxolup-18-ene] has an IC50 of under 199 nM.
In the case of `CC(C)C1=C2C3CCC4[C@@]5(C)CC[C@H](OC(=O)CC(C)(C)C(=O)O)C(C)(C)C5CC[C@@]4(C)[C@]3(C)CC[C@@]2(NC(=O)c2nnc(C(C)C)o2)CC1=O` (stereo partly drawn) [19-84, 3β-O-(3′,3′-Dimethylsuccinyl)-17β-(5-isopropyl-[1,3,4]-oxadiazole-2-amido)-21-oxolup-18-ene], the IC50 is reported as under 199 nM.
`CC(C)C1=C2C3CCC4[C@@]5(C)CC[C@H](OC(=O)CC(C)(C)C(=O)O)C(C)(C)C5CC[C@@]4(C)[C@]3(C)CC[C@@]2(NC(=O)C2CC3CCC(C2)O3)CC1=O` (stereo partly drawn) [19-70, 3β-O-(3′,3′-Dimethylsuccinyl)-17β-(8β-oxa-bicyclo[3.2.1]octane-3-amido)-21-oxolup-18-ene] was tested, and the IC50 was under 199 nM.
Work on `Cc1cncc(C(=O)N[C@@]23CC[C@]4(C)[C@H](CC[C@@H]5[C@@]6(C)CC[C@H](OC(=O)CC(C)(C)C(=O)O)C(C)(C)[C@@H]6CC[C@]54C)C2=C(C(C)C)C(=O)C3)c1` [19-47, 3β-O-(3′,3′-Dimethylsuccinyl)-17β-(5-methylpyridin-3-yl)amido-21-oxolup-18-ene] yielded an IC50 of under 199 nM.
Work on `CC(C)C1=C2[C@H]3CC[C@@H]4[C@@]5(C)CC[C@H](OC(=O)CC(C)(C)C(=O)O)C(C)(C)[C@@H]5CC[C@@]4(C)[C@]3(C)CC[C@@]2(NC(=O)Nc2ncccn2)CC1=O` [17-32, 3β-O-(3′,3′-Dimethylsuccinyl)-17β-(N′-pyrimidin-2-yl-ureido)-21-oxolup-18-ene] yielded an IC50 of under 199 nM.
Work on `CC(C)C1=C2C3CCC4[C@@]5(C)CC[C@H](OC(=O)CC(C)(C)C(=O)O)C(C)(C)C5CC[C@@]4(C)[C@]3(C)CC[C@@]2(NC(=O)NC2CCC(F)(F)CC2)CC1=O` (stereo partly drawn) [17-57, 3β-O-(3′,3′-Dimethylsuccinyl)-17β-[N′-(4,4-difluorocyclohexyl)ureido]-21-oxolup-18-ene] yielded an IC50 of under 199 nM.
`CC(C)C1=C2C3CCC4[C@@]5(C)CC[C@H](OC(=O)CC(C)(C)C(=O)O)C(C)(C)C5CC[C@@]4(C)[C@]3(C)CC[C@@]2(NC(=O)OC2CCNCC2)CC1=O` (stereo partly drawn) [20-16, 3β-O-(3′,3′-Dimethylsuccinyl)-17β-(piperidine-4-oxycarbonylamino)-21-oxolup-18-ene] showed an IC50 of under 199 nM.
`CC(C)C1=C2C3CCC4[C@@]5(C)CC[C@H](OC(=O)CC(C)(C)C(=O)O)C(C)(C)C5CC[C@@]4(C)[C@]3(C)CC[C@@]2(NC(=O)O[C@@H]2CCN(C)C2)CC1=O` (stereo partly drawn) [20-13, 3β-O-(3′,3′-Dimethylsuccinyl)-17β-((R)-1-methylpyrrolidine-3-oxycarbonylamino)-21-oxolup-18-ene] showed an IC50 of under 199 nM.
With `Cc1ccc(C(=O)N[C@@]23CC[C@]4(C)[C@H](CC[C@@H]5[C@@]6(C)CC[C@H](OC(=O)CC(C)(C)C(=O)O)C(C)(C)[C@@H]6CC[C@]54C)C2=C(C(C)C)C(=O)C3)cn1` [19-48, 3β-O-(3′,3′-Dimethylsuccinyl)-17β-(6-methylpyridin-3-yl)amido-21-oxolup-18-ene] the IC50 was under 199 nM.
`CC(C)C1=C2C3CCC4[C@@]5(C)CC[C@H](OC(=O)CC(C)(C)C(=O)O)C(C)(C)C5CC[C@@]4(C)[C@]3(C)CC[C@@]2(NC(=O)N(C)C)CC1=O` (stereo partly drawn) [17-48, 3β-O-(3′,3′-Dimethylsuccinyl)-17β-[N′,N′-dimethyl-ureido]-21-oxolup-18-ene] showed an IC50 of under 199 nM.
`CC(C)C1=C2[C@H]3CC[C@@H]4[C@@]5(C)CC[C@H](OC(=O)CC(C)(C)C(=O)O)C(C)(C)C5CC[C@@]4(C)[C@]3(C)CC[C@@]2(NC(=O)Nc2cnn(C)c2)CC1=O` (stereo partly drawn) [17-37, 3β-O-(3′,3′-Dimethylsuccinyl)-17β-[N′-(1-methyl-1H-pyrazol-4-yl)ureido]-21-oxolup-18-ene] was tested, and the IC50 was under 199 nM.

Same assay, conditions: Human immunodeficiency virus 1, MT2 cells, without human serum, average IC50 if tested more than once, read-out: MT2 (HIVIIIB) IC50 range
Compound `CC(C)C1=C2[C@H]3CC[C@@H]4[C@@]5(C)CC[C@H](OC(=O)CC(C)(C)C(=O)O)C(C)(C)[C@@H]5CC[C@@]4(C)[C@]3(C)CC[C@@]2(NC(=O)C2CCN(C(=O)OC(C)(C)C)CC2)CC1=O` [19-5, 3β-O-(3′,3′-Dimethylsuccinyl)-17β-(1-tert-butyloxycarbonylpiperidine-4-amido)-21-oxolup-18-ene] has an IC50 of under 199 nM.
`CC(C)C1=C2C3CCC4[C@@]5(C)CC[C@H](OC(=O)CC(C)(C)C(=O)O)C(C)(C)C5CC[C@@]4(C)[C@]3(C)CC[C@@]2(NC(=O)OC2CCN(C(=O)OC(C)(C)C)CC2)CC1=O` (stereo partly drawn) [20-6, 3β-O-(3′,3′-Dimethylsuccinyl)-17β-[(1-carboxylic acid tert-butyl ester)-piperidine-4-oxycarbonylamino]-21-oxolup-18-ene] showed an IC50 of under 199 nM.
